Assays:
[1] = tested on: Candida albicans (ATCC 18804); test: Dye uptake and binding by microbial cells, C. albicans (fluorescence of SDS-dissolved pellets); type: cell-based; details: 20 μM dye
Experimental: (§1) Suspensions of microorganisms were incubated for 10 minutes with photosensitizer in the dark at room temperature. Unbound photosensitizer was washed out by centrifugation of the mixture of dye and microorganisms for 6 minutes at 1550g, followed by resuspension of washed pellets in 10 mL PBS without Ca^++/Mg^++. Aliquots (200 μL) of these suspensions were used for photodynamic inactivation (PDI) experiments; the remaining suspensions were centrifuged again, and the pellets were dissolved in 3 mL 10% SDS for at least 24 hours. These suspensions were used for photosensitizer uptake measurement. The fluorescence of dissolved pellets was measured on a spectrofluorimeter (FluoroMax3, SPEX Industries, Edison, N.J.). For EtNBA (1), the excitation wavelength was 625 nm, and the emission spectra of the solution were recorded from 630 to 750 nm. For EtNBS (2), the excitation wavelength was 645 nm, and the range for emission was 650 to 750nm. For EtNBSe (3), the excitation wavelength was 655 nm, and the emission was recorded in the range from 660 to 750 nm. The fluorescence was calculated from the height of the peaks recorded. Calibration curves were made from pure photosensitizer dissolved in 10% SDS and used for determination of sensitizer concentration in the suspension. Uptake values were obtained by dividing the number of nmol of sensitizer in the dissolved pellet by the number of colony-forming units (CFU) obtained by serial dilutions and the number of photosensitizer molecules/cell calculated using Avogadro's number.
(§2) In order to do so, the uptake of dye was measured in terms of molecules per cell by carrying out 10 minute incubations with the same concentration of dyes that was used for photoinactivation, followed by a wash to remove residual incubating solution.
(§3) The bacterial pellets resulting from the incubation with photosensitizer were dissolved in 10% SDS to give a homogeneous solution, and comparison of the resulting fluorescence intensities with a calibration curve prepared with known concentrations of dye in the same solvent yielded the amount of dye in the pellet. […] For the fungus C. albicans, an even higher concentration of dye (20 μM) was used, because the eukaryotic cells are ten times bigger than the prokaryotic bacterial cells.

[2] = tested on: Candida albicans (ATCC 18804); test: Photodynamic inactivation of C. albicans (survival fraction by CFU after red light); type: cell-based; details: 20 μM dye, wash
Description: (§4) The microorganisms studied were Escherichia coli (ATCC 25922), Enterococcus faecalis (ATCC 29212), and Candida albicans (ATCC 18804). The microorganism species chosen to evaluate the photoactivities of the dyes in the present study are important pathogens in the type of infections, such as wounds and burns, likely to be amenable to photodynamic therapy (PDT). E. faecalis is typical of Enterococci that frequently develop vancomycin resistance and are important nocosomial pathogens in post-surgical wounds and burns.^42 Although E. coli is generally thought of as an intestinal or urinary tract pathogen, there is increasing concern about its presence in wound infections and its ability to develop extended spectrum beta-lactamase resistance.^43,44 C. albicans is increasingly found in nocosomial infections in burns^45 and, to a lesser extent, in surgical wounds.^46
Cells were grown at 37° C. in aerobic conditions in a shaker at 150 rpm. […] C. albicans was grown for approximately 4 h to approximate density of 10^7 cells/mL corresponding to an OD of 6 at 650 nm (ten fold dilution measured). […]
Suspensions of microorganisms were incubated for 10 minutes with photosensitizer in the dark at room temperature. […] The fluorescence of dissolved pellets was measured on a spectrofluorimeter (FluoroMax3, SPEX Industries, Edison, N.J.). For EtNBA (1), the excitation wavelength was 625 nm, and the emission spectra of the solution were recorded from 630 to 750 nm. […] For EtNBSe (3), the excitation wavelength was 655 nm, and the emission was recorded in the range from 660 to 750 nm. The fluorescence was calculated from the height of the peaks recorded. […] Uptake values were obtained by dividing the number of nmol of sensitizer in the dissolved pellet by the number of colony-forming units (CFU) obtained by serial dilutions and the number of photosensitizer molecules/cell calculated using Avogadro's number.
(§5) Illumination was performed either after or before excess dye was washed out. […] Exact power was measured with a laser power meter (model FM/GS, Coherent, Santa Clara, Calif.).

[3] = Absorption and fluorescence spectra, fluorescence quantum yield; details: for λfl(nm), fluorescence maximum: in ethanol; for λabs(nm), absorption maximum: in ethanol containing 0.1% acetic acid; for Φfl, absolute fluorescence quantum yield: relative to Cresyl Violet standard at 25° C.
Experimental: UV/visible absorption spectra were recorded using an HP 8453 spectrophotometer. Corrected fluorescence spectra were recorded using a SPEX Fluorolog2 (solvent measurements) or a FluoroMax3 (microorganism measurements), SPEX Industries, Edison, N.J. Fluorescence quantum yields were measured relative to Cresyl Violet standard at 25° C.^32 Quantum yields for ^1O2 formation were determined by measuring the ^1O2-mediated bleaching of 1,3-diphenylisobenzofuran^12 relative to Methylene Blue (0.50)^33 at 25° C. ^1H NMR spectra were obtained using a Varian 400 MHz spectrometer with TMS as internal standard.

[4] = Quantum yield of singlet oxygen formation (1,3-diphenylisobenzofuran bleaching); type: physicochemical; details: 1,3-diphenylisobenzofuran method, relative to Methylene Blue, 25° C.
Description: All solvents were reagent grade and used as received.
(§6) The relative photoactivities of the three photosensitizers studied herein were gauged by their abilities to generate singlet oxygen (^1O2) when illuminated with a beam of red light having an adjusted intensity such that each dye absorbed the same number of photons per unit time. […] Finally, because of the relevance of lipophilicity to the present studies, the partition coefficients for the PS between 2-octanol and phosphate-buffered saline (pH=7.4) are listed^18.

[5] = Partition coefficient between 2-octanol and pH 7.4 buffered saline; type: physicochemical; details: for LogP, partition coefficient: pH 7.4
Description: as §6

[6] = tested on: Enterococcus faecalis (ATCC 29212); test: Photodynamic inactivation of E. faecalis (survival fraction by CFU after red light); type: cell-based; details: 2 μM dye
Description: as §4
(§7) Cells were grown at 37° C. in aerobic conditions in a shaker at 150 rpm. Brain-heart infusion broth (Difco, BD Diagnostic Systems, Sparks, Md.) was used for E. coli and E. faecalis, YM medium (Difco) was used for C. albicans. Exponential cultures obtained by reculturing stationary overnight precultures were used for all experiments. E. coli and E. faecalis were grown in fresh medium for approximately 1 h to a density of 10^8 cells/mL; the OD values at 650 nm were 0.6. C. albicans was grown for approximately 4 h to approximate density of 10^7 cells/mL corresponding to an OD of 6 at 650 nm (ten fold dilution measured). Exact cell numbers were confirmed by counting colony forming units obtained after serial dilution on square BHI (or YM for Candida) agar plates.
(§8) Stock solutions (2 mM) of the three chalcogen dyes were prepared in water and stored at 4° C. in the dark for no longer than 1 month before use. A non-coherent light source with interchangeable fiber bundles (LumaCare, London, UK) was employed. Thirty-nm band pass filters allowed total powers of roughly 1 W to be obtained from 630+/−15 nm for EtNBA (1), 652+/−15 nm for EtNBS (2), and 660+/−15 nm for EtNBSe (3).
as §1
Illumination was performed either after or before excess dye was washed out. Aliquots of 200 μL of cell suspension were placed in 96-well plates and illuminated with appropriate light at room temperature. Fluences ranged from 0 to 80 Jcm^−2 at an irradiance of 60-100 mWcm^−2. Exact power was measured with a laser power meter (model FM/GS, Coherent, Santa Clara, Calif.).

[7] = tested on: Enterococcus faecalis (ATCC 29212); test: Dye uptake and binding by microbial cells, E. faecalis (fluorescence of SDS-dissolved pellets); type: cell-based; details: 2 μM dye; for cell uptake (molecules per cell), rank order: 10 minute incubation, wash
Experimental: as §1, §2, §3

[8] = in vivo; cited from earlier work
[9] = tested on: Escherichia coli (ATCC 25922); test: Photodynamic inactivation of E. coli (survival fraction by CFU after red light); type: cell-based; details: 5 μM dye
Description: as §4, §7, §8
as §1, with “For EtNBS (2), the excitation wavelength was 645 nm, and the range for emission was 650 to 750nm.” left out, “Calibration curves were made from pure photosensitizer dissolved in 10% SDS and used for determination of sensitizer concentration in the suspension.” left out
as §5

[10] = tested on: Escherichia coli (ATCC 25922); test: Dye uptake and binding by microbial cells, E. coli (fluorescence of SDS-dissolved pellets); type: cell-based; details: 5 μM dye; for cell uptake (molecules per cell), rank order: 10 minute incubation, wash
Experimental: as §1, §2, §3

[11] = reference standard value, 25° C.; cited from earlier work

## CCNc1cc2[o+]c3cc(N(CC)CC)ccc3nc2c2ccccc12 [Dye 1, 5-Ethylamino-9-diethylaminobenzo[a]phenoxazinium]
[1]
  fraction of total dye added that was bound to the cells: approximately 75%
[1]; 10 minute incubation, wash
  cell uptake (molecules per cell), comparison with EtNBSe (3): significantly lower
[2]; 80 J/cm^2
  killing of cells: > 97%
[3]
  λfl(nm), fluorescence maximum: 660 nm
  λabs(nm), absorption maximum: 632 nm
  Φfl, absolute fluorescence quantum yield: 0.27
[4]
  1O2, absolute quantum yield for singlet oxygen formation: 0.003
[5]
  LogP, partition coefficient: 2.69
[6]; wash, 80 J/cm^2 of 635-nm light
  killing of cells: 95%
[7]
  cell uptake (molecules per cell), rank order: EtNBSe (3)>EtNBS (2)>EtNBA (1)
[8]
  toxicity in the dark: little or no toxicity in the dark
[9]; wash, 80 J/cm^2
  killing of cells: 90%
[10]
  cell uptake (molecules per cell), rank order: EtNBSe (3)>EtNBS (2)>EtNBA (1)

## 5-ethylamino-9-diethylaminobenzo[a]phenothiazinium [Dye 2]
[1]
  fraction of total dye added that was bound to the cells: essentially quantitative
[2]; 64 J/cm^2
  killing of cells: > 98%
[3]
  λfl(nm), fluorescence maximum: 693 nm
  λabs(nm), absorption maximum: 654 nm
  Φfl, absolute fluorescence quantum yield: 0.21
[4]
  1O2, absolute quantum yield for singlet oxygen formation: 0.03
[5]
  LogP, partition coefficient: 2.76
[6]
  comparison of killing curves with and without a wash: the two curves are almost identical
[6]; wash, 64 J/cm^2 of 652-nm light
  killing of cells: > 99.9%
[7]
  cell uptake (molecules per cell), rank order: EtNBSe (3)>EtNBS (2)>EtNBA (1)
[8]
  toxicity in the dark: little or no toxicity in the dark
[9]; wash, 64 J/cm^2
  killing of cells: more than 99%
[10]
  fraction of total dye added that was bound to the cells: approximately 75%
  cell uptake (molecules per cell), rank order: EtNBSe (3)>EtNBS (2)>EtNBA (1)

## CCN=c1cc2[se]c3cc(N(CC)CC)ccc3nc-2c2ccccc12 [Dye 3, 5-Ethylamino-9-diethylaminobenzo[a]phenoselenazinium chloride]
[1]
  fraction of total dye added that was bound to the cells: essentially quantitative
[2]; 4 J/cm^2
  killing of cells: more than 99%
[3]
  λfl(nm), fluorescence maximum: 703 nm
  λabs(nm), absorption maximum: 661 nm
  Φfl, absolute fluorescence quantum yield: 0.03
[4]
  1O2, absolute quantum yield for singlet oxygen formation: 0.78
[5]; between 2-octanol and pH 7.4 buffered saline
  logP: 2.08
[6]
  comparison of killing curves with and without a wash: no significant difference in the two killing curves
[6]; wash, 8 J/cm^2 of 660-nm light
  killing of cells: > 99.999%
  killing of cells (logs): 5.5 logs
[7]
  fraction of total dye added that was bound to the cells: approximately 75%
  cell uptake (molecules per cell), rank order: EtNBSe (3)>EtNBS (2)>EtNBA (1)
[9]
  comparison of killing curves with and without a wash: bacteria washed free of incubating solution were actually killed slightly (but not significantly) more than those of the non-wash group
[9]; wash, 32 J/cm^2
  killing of cells: > 99.9999%
  killing of cells (logs): > 6 logs
[10]
  fraction of total dye added that was bound to the cells: essentially quantitative
  cell uptake (molecules per cell), rank order: EtNBSe (3)>EtNBS (2)>EtNBA (1)

## CN(C)c1ccc2nc3ccc(=[N+](C)C)cc-3sc2c1 [Methylene Blue]
[11]
  quantum yield for 1O2 formation of the standard: 0.50

Reference: patent publication US20080015189A1, “Antimicrobial photoinactivation using chalcogen analogs of benzo(A)phenoxazinium dyes” (The General Hospital Corporation, priority 2006, published 2008)
